Source: PubChem BioAssay (NCI)
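All cell lines were grown in 96-well plates and treated with compound for 48 hours. GI50 marks 50% less growth. TGI: concentration producing complete growth inhibition.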 Where a SMILES comes first, the peptide text is derived from it. [ ]: non-standard residue; d: D form. ξ: configuration not given here. ξLac(3-iPr) = CC(C)CC(O)C(=O)O; NMeV = CN[CH](C(=O)O)C(C)C; NMeA = CN[CH](C)C(=O)O; βAla = NCCC(=O)O

What was measured:
Assay in all cases: inhibition of tumour cell growth, NCI panel, 48 h
[1] = system: COLO 205 colon
[2] = system: DU-145 prostate
[3] = system: HOP-62 NSCLC
[4] = system: NCI/ADR-RES ovarian
[5] = system: OVCAR-4 ovarian
[6] = system: OVCAR-5 ovarian
[7] = system: OVCAR-8 ovarian
[8] = system: PC-3 prostate
[9] = system: RXF 393 renal
[10] = system: SF-268 CNS
[11] = system: SF-295 CNS
[12] = system: SF-539 CNS
[13] = system: SK-MEL-5 melanoma
[14] = system: SNB-19 CNS
[15] = system: T-47D breast
[16] = system: U251 CNS

| SMILES | TGI [1] | TGI [2] | TGI [3] | TGI [4] | TGI [5] | TGI [6] | TGI [7] | TGI [8] | TGI [9] | TGI [10] | TGI [11] | TGI [12] | TGI [13] | TGI [14] | TGI [15] | TGI [16] | GI50 [3] | GI50 [7] | GI50 [10] | GI50 [12] |
| --- | --- | --- | --- | --- | --- | --- | --- | --- | --- | --- | --- | --- | --- | --- | --- | --- | --- | --- | --- | --- |
| CO/N=C\c1cc(O)c(O)c(/C=N/OC)c1 | > 100 µM | > 100 µM | > 100 µM | > 100 µM | > 100 µM | > 100 µM | > 100 µM | > 100 µM | > 100 µM | > 100 µM | > 100 µM | > 100 µM | > 100 µM | > 100 µM | > 100 µM | > 100 µM |  |  |  |  |
| O=C1C=CC(=O)c2c(O)c(Br)c(Br)c(O)c21 | 2.46 µM | 25.9 µM | 24.8 µM | 58.7 µM | 9.08 µM | 30.8 µM | 25.7 µM | 29.6 µM | 6.13 µM | 38.3 µM | 36.9 µM | 30.5 µM | 27.2 µM | 33.1 µM | 6.04 µM | 33.7 µM |  |  |  |  |
| C[C@]12CC[C@@H]3c4ccc(O)cc4CC[C@H]3[C@@H]1CC[C@@H]2OC(=O)CCc1ccccc1 | 37.1 µM | 43 µM | 55.9 µM | 33.8 µM | 39.1 µM | > 100 µM | 51 µM | 34.4 µM | 33.6 µM | 35.8 µM | 42 µM |  | 33.7 µM | 37.7 µM | 37 µM | 38.1 µM |  |  |  |  |
| Cc1ccc(C2COc3cc(O)c(O)cc3C2)cc1 (stereo unspecified) | 26.2 µM |  | 266 µM | 40.8 µM | 62 µM | 244 µM | 44.7 µM |  | 26.2 µM | 49.3 µM | 134 µM | 68.4 µM | 105 µM | 251 µM |  | 94.3 µM |  |  |  |  |
| COc1cc(C(=O)CC2OC(=O)C(Cl)=C2Cl)ccc1Cl (stereo unspecified) | > 100 µM |  | > 100 µM |  | > 100 µM | > 100 µM | > 100 µM |  | > 100 µM | > 100 µM | > 100 µM | > 100 µM | > 100 µM | > 100 µM |  | > 100 µM |  |  |  |  |
| O=C(c1ccccc1)C1C(c2ccccc2)N1S(=O)(=O)c1ccccc1 (stereo unspecified) | > 100 µM | > 100 µM | > 100 µM | > 100 µM | > 100 µM | > 100 µM | > 100 µM | > 100 µM | > 100 µM | > 100 µM | > 100 µM | > 100 µM | > 100 µM |  | > 100 µM | > 100 µM |  |  |  |  |
| Cc1nc2[nH]ncn2c(=O)c1CCCl | > 10 µM | > 10 µM | > 10 µM | > 10 µM | > 10 µM | > 10 µM | > 10 µM | > 10 µM | > 10 µM | > 10 µM |  | > 10 µM | > 10 µM | > 10 µM | > 10 µM | > 10 µM |  |  |  |  |
| N#C/C(=C\c1ccc(Br)cc1)n1nnc2cc(Cl)c(Cl)cc21 |  |  | > 100 µM |  |  |  | > 100 µM |  |  | > 100 µM |  | 4.86 µM |  |  |  |  | 3.26 µM | 2.17 µM | 3.84 µM | 2.2 µM |
| CCC(C)C1NC(=O)C2CCCN2C(=O)C(CC(C)C)OC(=O)CCNC(=O)C(C)N(C)C(=O)C(C(C)C)N(C)C1=O (stereo unspecified) (cyclo([ξLac(3-iPr)]PI[NMeV][NMeA][βAla]); configuration not given here) | 17.2 µM | > 89.2 µM | 17.7 µM | > 86.9 µM | > 100 µM | > 100 µM | 29.2 µM | > 100 µM | 98 µM | 80.9 µM | 8.05 µM | > 80.3 µM | 3.27 µM | > 100 µM | 38.9 µM | > 100 µM |  |  |  |  |
| O=C(c1ccccc1)c1nc2ccc(Cl)cc2c2c1CCCO2 | > 100 µM |  | > 100 µM |  | > 100 µM | > 100 µM | > 100 µM |  | > 100 µM | > 100 µM | > 100 µM |  |  | > 100 µM |  | > 100 µM |  |  |  |  |
